Experiments:
Assay in all cases: relative viability (nuclei count vs DMSO), 5 days (fraction); higher = more cells survive
[1] = compound: O=c1ncccn1[C@@H]1O[C@H](CO)[C@@H](O)[C@H]1O [Zebularine] + C[C@@H](Oc1cc(-c2cnn(C3CCNCC3)c2)cnc1N)c1c(Cl)ccc(F)c1Cl [Crizotinib] (partner 1 µM)
Procedure, shortened: (§1)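 Relative viability was taken as the ratio of nuclei in treated wells to nuclei in vehicle wells. Lung cancer cell lines in 1536-well plates received compounds by pin tool one day after seeding, either one drug alone or a fixed anchor-drug dose plus five library-drug doses (not always all listed) in √10 steps. Nuclei were counted on 4× images after 5 days of treatment, and values are medians of duplicate plates.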

[2] = compound: CC(C)CCN1c2nc(Nc3cc(F)c(O)c(F)c3)ncc2N(C)C(=O)C1C [BI-D1870] + O=C(c1cc(Cc2n[nH]c(=O)c3ccccc23)ccc1F)N1CCN(C(=O)C2CC2)CC1 [Olaparib] (partner 8 µM)
Procedure, shortened: as §1

[3] = compound: CC(C)CCN1c2nc(Nc3cc(F)c(O)c(F)c3)ncc2N(C)C(=O)C1C [BI-D1870] + NC(=O)Nc1cc(-c2cccc(F)c2)sc1C(=O)N[C@H]1CCCNC1 [AZD7762] (partner 0.2 µM)
Procedure, shortened: as §1

[4] = compound: O=c1ncccn1[C@@H]1O[C@H](CO)[C@@H](O)[C@H]1O [Zebularine] + COc1cc2c(Oc3ccc(NC(=O)C4(C(=O)Nc5ccc(F)cc5)CC4)cc3F)ccnc2cc1OCCCN1CCOCC1 [Foretinib] (partner 0.25 µM)
Procedure, shortened: as §1

Cell Line	relative viability ([1]; first compound 1 µM)	relative viability ([1]; first compound 3.162 µM)	relative viability ([1]; first compound 10 µM)	relative viability ([1]; first compound 31.62 µM)	relative viability ([1]; first compound 100 µM)	relative viability ([2]; first compound 0.04 µM)	relative viability ([2]; first compound 0.1265 µM)	relative viability ([2]; first compound 0.4 µM)	relative viability ([2]; first compound 1.265 µM)	relative viability ([2]; first compound 4 µM)	relative viability ([3]; first compound 0.04 µM)	relative viability ([3]; first compound 0.1265 µM)	relative viability ([3]; first compound 0.4 µM)	relative viability ([3]; first compound 1.265 µM)	relative viability ([3]; first compound 4 µM)	relative viability ([4]; first compound 1 µM)	relative viability ([4]; first compound 3.162 µM)	relative viability ([4]; first compound 10 µM)	relative viability ([4]; first compound 31.62 µM)	relative viability ([4]; first compound 100 µM)
H3255	0.945	0.853	0.576	0.91	0.858	0.591	0.526	0.59	0.602	0.526	0.956	0.965	0.851	1.07	0.892	0.94	0.98	0.766	0.959	0.897
HARA	1.17	1.11		1.17	0.834	0.795	0.826	0.86	0.868	0.972	0.442	0.307	0.263	0.318	0.297	0.979			0.912	0.584
HCC-15	1.02	0.761	0.586	0.769	0.219	0.819	0.761	0.713	0.694	0.404	0.725	1.18	1.04	1.17	1.08	1.21	1.08	0.833	0.861	0.434
HCC-78	0.336	0.335	0.298	0.359	0.252	0.662	0.932	0.682	0.971	0.68	0.677	0.593	0.528	0.815	0.598	0.523	0.547	0.53	0.584	0.477
HCC-366	0.774	0.637	0.2	0.265	0.133	0.503	0.348	0.295	0.42	0.229	0.389	0.273	0.202	0.662	0.477	0.935	0.922	0.797	0.65	0.163
HCC-827	1.07	0.907	0.785	0.647	0.339	0.71	0.649	0.594	0.634	0.626	0.233	0.295	0.173	0.223	0.185	1.15	1.07	0.718	0.714	0.317
HOP-62	0.923	0.245	0.601	0.209	0.129	0.545	0.364	0.388	0.525	0.383	0.969	0.898	0.798	0.834	0.651	1.28	1.15	0.335	0.252	0.186
LC-2-ad	0.498	0.434	0.363	0.377	0.249	0.691	0.66	0.725	0.609	0.624	0.849	0.805	0.831	0.886	0.675	0.868	0.828	0.717	0.674	0.454
LCLC-97TM1	0.355	0.291	0.145	0.121	0.12	0.521	0.33	0.38	0.634	0.301	0.194	0.317	0.174	0.368	0.335	0.929	1	0.704	0.27	0.212
LCLC-103H	1.07	1.11	0.867	1.07	0.862	0.813	0.68	0.676	0.764	0.671	0.768	0.655	0.804	0.871	0.741	0.785	0.861	0.456	0.78	0.469
LK-2	0.217	0.236	0.266	0.209	0.23	0.913	0.655	0.683	0.834	0.71	0.509	0.473	0.374	0.536	0.263	1.33	1.08	0.529	0.756	0.403
LOU-NH91	0.713	0.732	0.693	0.738	0.647	1.06	0.892	0.903	0.911	0.669	0.846	0.755	0.73	0.804	0.624	0.95	0.888	0.866	0.947	0.567
LU99A	0.683	0.531	0.383	0.255	0.153	0.274	0.243	0.264	0.244	0.229	0.414	0.3	0.429	0.655	0.49	0.884	0.807	0.577	0.436	0.195
LXF-289	0.835	0.828	0.714	0.622	0.238	1.1	1.04	1.06	1.08	0.612	1.08	1.04	1.07	1.06	0.943	1.09	0.984	0.847	0.626	0.241
NCI-H23	0.482	0.559		0.456	0.5	0.307	0.263	0.294	0.301	0.212	0.337	0.224	0.23	0.192	0.243	1.09	1.1	0.658	0.893	0.854
NCI-H322M	0.969	0.897	0.804	0.821	0.523	0.736	0.75	0.713	0.735	0.624	0.591	0.558	0.611	0.684	0.656	0.914	0.945	0.645	0.773	0.647

Cell Line	relative viability ([1]; first compound 1 µM)	relative viability ([1]; first compound 3.162 µM)	relative viability ([1]; first compound 10 µM)	relative viability ([1]; first compound 31.62 µM)	relative viability ([1]; first compound 100 µM)	relative viability ([2]; first compound 0.04 µM)	relative viability ([2]; first compound 0.1265 µM)	relative viability ([2]; first compound 0.4 µM)	relative viability ([2]; first compound 1.265 µM)	relative viability ([2]; first compound 4 µM)	relative viability ([3]; first compound 0.04 µM)	relative viability ([3]; first compound 0.1265 µM)	relative viability ([3]; first compound 0.4 µM)	relative viability ([3]; first compound 1.265 µM)	relative viability ([3]; first compound 4 µM)	relative viability ([4]; first compound 1 µM)	relative viability ([4]; first compound 3.162 µM)	relative viability ([4]; first compound 10 µM)	relative viability ([4]; first compound 31.62 µM)	relative viability ([4]; first compound 100 µM)
NCI-H358	0.618	0.475	0.237	0.387	0.252	0.685	0.548	0.592	0.485	0.35	0.551	0.566	0.52	0.594	0.492	0.723	0.602	0.476	0.391	0.184
NCI-H441	0.874	0.657	0.289	0.173	0.219	0.682	0.549	0.569	0.537	0.492	1.29	1.09	1.03	1.09	1.1	1.72	1.03	0.684	0.361	0.258
NCI-H460	1.06	0.987	0.273	0.375	0.1	0.492	0.384	0.323	0.436	0.179	0.702	0.621	0.566	0.993	0.829	1.08	0.948	0.689	0.463	0.0513
NCI-H596	0.994	0.948	0.85	0.902	0.988	0.73	0.743	0.625	0.671	0.63	1.23	0.9	1.04	1.16	0.933	0.75	0.926	0.559	0.891	0.602
NCI-H647	1.18	0.981	0.254	0.142	0.228	0.747	0.447	0.579	0.496	0.359	0.432	0.502	0.494	0.611	0.479	1.03	0.979	0.333	0.198	0.167
NCI-H650	0.598	0.652	0.587	0.43	0.334	0.443	0.375	0.366	0.369	0.315	1.14	0.83	0.897	1.17	0.778	1.02	0.934	0.824	0.447	0.258
NCI-H727	0.927	0.613	0.638	0.947	0.881	0.704	0.563	0.675	0.649	0.779	0.575	0.793	0.569	0.838	0.515	0.951	0.85	0.769	1.03	0.723
NCI-H838	0.93	0.838	0.493	0.65	0.3	0.792	0.719	0.74	0.855	0.663	0.994	0.909	0.893	1.04	0.947	1.08	1.03	0.705	0.698	0.322
NCI-H1355	1.12	0.966	0.87	0.404	0.315	0.898	0.698	0.713	0.74	0.57	0.954	0.732	0.7	0.849	0.551	1.02	0.907	0.631	0.47	0.325
NCI-H1437	1.09	0.987		0.902	0.31	0.617	0.577	0.578	0.578	0.445	1.09	1.06	1.12	1.1	1.06	1.33	1.29	1.04	1.21	0.653
NCI-H1651	0.919	0.893	0.604	0.745	0.514	0.2	0.157	0.175	0.187	0.178	0.511	0.491	0.395	0.465	0.403	0.856	0.93	0.511	0.738	0.374
NCI-H1666	1.01	0.783	1.05	1.02	0.596	0.751	0.715	0.736	0.7	0.72	0.934	0.868	0.778	0.995	0.812	0.94	0.919	0.805	0.999	0.805
NCI-H1703	0.623	0.852		0.67	0.913		0.439	0.328	0.487	0.315	0.143		0.122	0.142	0.116	0.338	0.285		0.35	0.389
NCI-H1734	0.71	0.696	0.391	0.384	0.295	0.684	0.545	0.605	0.673	0.463	0.635	0.494	0.608	0.72	0.593	0.931	0.864	0.631	0.529	0.299
NCI-H1755	1.03	0.872	0.612	0.864	0.466	0.855	0.842	0.893	0.896	0.82	0.417	0.412	0.407	0.486	0.404	0.925	0.918	0.854	0.992	0.591
NCI-H1915	1.18	0.911	0.649	0.926	0.698	0.249	0.24	0.267	0.206	0.146	0.706	0.636	0.665	0.7	0.616	1.3	1.11		1.26	0.984

From the supplement of paper PMC10307832
